Here are results for six compounds from US5955489A, “Taxane derivatives, the preparation thereof and formulations containing them” (Indea S.p.A., priority 1996, dated 1999).

In experiment [1] the test system is Line MDA (normal ovary cell line). Kind of experiment: cytotoxicity on a normal ovary cell line (Line MDA). It counts as cell-based. The conditions noted are these: read-out: IC50 Line MDA.
For experiment [2], the system named is Line MCF7-ADRr (adriamycin-resistant). Kind of experiment: cytotoxicity on an adriamycin-resistant cell line (Line MCF7-ADRr). The conditions noted are these: read-out: IC50 Line MCF7-ADRr. Format: cell-based.
Setting [3] is: Line MDA, normal ovary cell line.

Read-outs that look alike come from different tables or passages of the source.

As usually defined, the IC50 is the concentration at which inhibition is half-maximal.

Consider “13-(N-Boc-phenylisoserinyl)-10-dehydro-10-deacetyl-baccatine III pyrazoline [Compound of example 4]”, for which the concentration for half-maximal inhibition (IC50) in experiment [1] (setting [3]) worked out at 1.2 nM; in experiment [2] it was 264 nM.

For `CC(=O)O[C@@]12CO[C@@H]1CC1NN=C3C(=O)C4=C(C)[C@@H](OC(=O)[C@H](O)[C@@H](NC(=O)c5ccccc5)c5ccccc5)C[C@@](O)([C@@H](OC(=O)c5ccccc5)[C@H]2[C@]31C)C4(C)C` (stereo partly drawn) [Compound of example 2, 10-deacetyl-10-dehydro-Paclitaxel pyrazoline], the half-maximal inhibitory concentration (IC50) in experiment [1] came to 3.1 nM.

On to `CC(=O)O[C@@]12CO[C@@H]1CC1NN=C3C(=O)C4=C(C)[C@@H](OC(=O)[C@H](O)[C@H](CC(C)C)NC(=O)OC(C)(C)C)C[C@@](O)([C@@H](OC(=O)c5ccccc5)[C@H]2[C@]31C)C4(C)C` (stereo partly drawn) [Compound of example 5, 13-(N-Boc-3'-isobutyl)-isoserinyl-10-dehydrobaccatine III pyrazoline], for which the IC50 in experiment [1] is 1.4 nM.

Consider `CC(=O)O[C@@]12CO[C@@H]1CC1NN=C3C(=O)C4=C(C)[C@@H](OC(=O)[C@H](O)[C@@H](NC(=O)OC(C)(C)C)c5ccccc5)[C@@H]5OC(=O)O[C@]5([C@@H](OC(=O)c5ccccc5)[C@H]2[C@]31C)C4(C)C` (stereo partly drawn) [Compound of example 6, 13-(N-Boc-phenyl-isoserinyl)-1,14-carbonate10-dehydro-10-deacetyl-baccatine III pyrazoline], for which the half-inhibitory concentration (IC50) in experiment [1] came out at 2.1 nM.

As for `CC(=O)O[C@@]12CO[C@@H]1C[C@H](O)[C@@]1(C)C(=O)[C@H](O)C3=C(C)[C@@H](OC(=O)[C@H](O)[C@@H](NC(=O)OC(C)(C)C)c4ccccc4)C[C@@](O)([C@@H](OC(=O)c4ccccc4)[C@H]21)C3(C)C` [Docetaxel, reference compound], the half-maximal inhibitory concentration (IC50) came to 0.8 nM in experiment [1] (setting [3]) and 700 nM in experiment [2] (Line MCF7-ADRr, adriamycin-resistant).

As to `CC(=O)O[C@H]1C(=O)[C@@]2(C)[C@H]([C@H](OC(=O)c3ccccc3)[C@]3(O)C[C@H](OC(=O)[C@H](O)[C@@H](NC(=O)c4ccccc4)c4ccccc4)C(C)=C1C3(C)C)[C@]1(OC(C)=O)CO[C@@H]1C[C@@H]2O` [Paclitaxel, reference compound], the 50% inhibitory concentration (IC50) in experiment [1] is 2.4 nM; in experiment [2], 2600 nM.
